In assay [1] the test system is hepatocyte growth factor. The assay is described as follows: Gene expression in cardiac tissue of mice fed Tempol, chip-based microarray. It counts as in vivo. To be noted: 5 mg/g of food from 14 to 31 months of age. On the procedure:
To assess the effects of Tempol on gene expression, Tempol was administered to experimental mice at a dose of 5 mg/g of food from 14 months to 31 months after birth. Mice receiving the same food without the addition of Tempol were used as a negative control. At the age of 31 months, the experimental animals were sacrificed and the hearts were surgically removed. The expression of a broad spectrum of genes in the cardiac tissue was assessed using chip-based microarray technology. Such chips are well known in the art and are widely used to assess gene expression.

Assay [2] has as its system Caspase 3. The assay is described as follows: Gene expression in adipose tissue of mice fed Tempol, Affymetrix MOE430A 2.0 array. The format is in vivo. Particulars: 5 g/kg of diet from 12 through 15 months. On the procedure:
(§1) In a further gene expression study, Tempol was administered to experimental mice at a dose of 5 g/kg of diet from 12 months through 15 months. Mice receiving the same diet without the addition of Tempol were used as a negative control. At the age of 15 months, the adipose tissue of the experimental animals was obtained. The expression of a broad spectrum of genes in the adipose tissue was assessed using chip-based microarray technology. Specifically, in this case an Affymetrix MOE430A 2.0 array, containing 12,960 genes, was employed. Such chips are well known in the art and are widely used to assess gene expression.

Assay [3] has as its system Adiponectin, C1Q and collagen domain containing. The description is as above. Particulars: 5 g/kg of diet from 12 through 15 months. It counts as in vivo. On the procedure: as §1
For assay [4], the system named is endothelium. Particulars: angiotensin II infused rats, introduction of Tempol; cited from earlier work.
The test system of assay [5] is hepatocyte growth factor. The assay is described as follows: Protein level in patient after Tempol treatment. It counts as in vivo, human. Particulars: 1500 mg per day for 180 days. On the procedure: (§2) A 70-kilogram patient three days post myocardial infarction is administered a dose of 1500 mg of Tempol per day for 180 days. This may be administered in a single dose, or may be administered as a number of smaller doses over a 24-hour period: for example, three 500-mg doses at eight-hour intervals. Following treatment, the protein level of hepatocyte growth factor and adiponectin in the plasma is increased, and the protein level of caspase 3 is decreased.
(§3) A 70-kilogram patient at risk for myocardial infarction is administered a dose of 1500 mg of Tempol per day for 180 days. This may be administered in a single dose, or may be administered as a number of smaller doses over a 24-hour period: for example, three 500-mg doses at eight-hour intervals. Following treatment, the protein level of hepatocyte growth factor and adiponectin in the plasma is increased, and the protein level of caspase 3 is decreased.

Assay [6] concerns adiponectin. The assay is described as follows: Protein level in patient after Tempol treatment. The format is in vivo, human. To be noted: 1500 mg per day for 180 days. On the procedure:
as §2, §3

In assay [7] the test system is caspase 3. The assay is described as follows: Protein level in patient after Tempol treatment. To be noted: 1500 mg per day for 180 days. It counts as in vivo, human. On the procedure: as §2, §3
The mark [8] stands for this setting: Example 1: 70-kg patient three days post myocardial infarction.
Setting [9] is: Example 2: 70-kg patient at risk for myocardial infarction.

Molecules are shown by their SMILES.

For the compound `CC1(C)CC(O)CC(C)(C)N1[O]` [Tempol, 4-hydroxy-2,2,6,6-tetramethylpiperidine-1-oxyl], in assay [1], the “HGF expression, fold change (increase) vs control mice” value is 3.2 fold. For the same compound, in assay [1] (microarray signal), the “HGF (ORF W12681) expression, TEMPOL-treated mouse tp51” value turned out to be 152. The “HGF (ORF W12681) expression, TEMPOL-treated mouse tp52” value in assay [1] (microarray signal) came to 151. In addition, the “HGF (ORF W12681) expression, TEMPOL-treated mouse tp53” value in assay [1] (microarray signal) stood at 207. Moreover, the “Caspase 3 expression, mean (Tempol-treated mice)” value in assay [2] (microarray signal) came to 414. For the same compound, the “Caspase 3 expression, fold change vs control mice (signed)” value in assay [2] (negative = decrease) is reported as −1.47 fold. Also, the “Caspase 3 expression, fold decrease vs control mice” value in assay [2] (stated as decreased) turned out to be 1.47 fold. The “Adiponectin expression, fold change (increase) vs control mice” value in assay [3] was determined as 1.22 fold. Moreover, the “Adiponectin expression, mean (Tempol-treated mice)” value in assay [3] (microarray signal) came to 33876. Further, the “Deleterious effects of angiotensin II on the endothelium” value in assay [4] is recorded as “ameliorated”. Besides, the “Protein level of hepatocyte growth factor in the plasma” value in assay [5] (setting [8]) and in assay [5] (setting [9]) was “increased” each time. In addition, the “Protein level of adiponectin in the plasma” value in assay [6] (setting [8]) and in assay [6] (setting [9]) was “increased” throughout. Moreover, the “Protein level of caspase 3” value in assay [7] (setting [8]) and in assay [7] (setting [9]) was “decreased” each time.
